Counter-ions that a name gives are not always drawn.
Key:
[1] = target: human RORγt LBD (Homo sapiens (Human), UniProt P51449); assay: RORγt reporter assay (GAL4-RORγt LBD luciferase, HEK293T cells); assay type: cell-based; details: for RORγt reporter Assay, % inhibition @ 6 μM: HEK293T cells; for inhibition at 6 µM: HEK-293T, read-out: RORγt reporter Assay, % inhibition @ 6 μM, 6 μM, HEK293T cells
From the text: A reporter assay was used to test functional activity of RORγt modulatory compounds on transcriptional activation driven by the RORγt LBD. Cells used in the assay were co-transfected with two constructs. The first construct, pBIND-RORγt LBD, contained the wild type human RORγt LBD fused to the DNA binding domain of the GAL4 protein. The second construct, pGL4.31 (Promega Cat no. C935A), contained multiple GAL4 responsive DNA elements upstream of firefly luciferase. […] The mutant construct was called pBIND-RORγt-AF2. […] The pBIND vector contains the GAL4 DNA Binding Domain (GAL4 DBD) and the renilla luciferase gene under control of the SV40 promoter. Renilla luciferase expression serves as a control for transfection efficiency and cell viability.
The reporter assay was performed by transiently transfecting HEK293T cells with 5 μg of pBIND-RORγt LBD or pBIND-RORγt LBD-AF2 and 5 μg pGL4.31 (Promega Cat no. C935A) using Fugene 6 (Invitrogen Cat no. E2691) at a 1:6 ratio of DNA: Fugene 6 in a T-75 flask in which cells were at least 80% confluent. Twenty four hours after bulk transfection, cells were plated into 96-well plates at 50,000 cells/well in phenol-red free DMEM containing 5% Lipid Reduced FCS and Pen/Strep. Six hours after plating, cells were treated with compounds for 24 hours. Media was removed and cells were lysed with 50 μL 1x Glo Lysis Buffer (Promega). Dual Glo Luciferase Reagent (50 μL/well) was then added and firefly luciferase luminescence was read on an Envision after a ten minute incubation. Finally, Stop and Glo reagent (50 μL/well) was added and renilla luciferase luminescence was read on an Envision after a ten minute incubation. To calculate the effect of compounds on RORγt activity, the ratio of firefly to renilla luciferase was determined and plotted against compound concentration. Agonist compounds increase RORγt-driven luciferase expression, and antagonist or inverse agonist compounds decrease luciferase expression.

[2] = test system: IL-17 production by CD4 T cells; assay: Human Th17 assay; assay type: cell-based; details: IL-17 in supernatant after 3 days, human CD4+ T cells under Th17 differentiation
From the text: The human Th17 assay tests the effect of RORγt modulatory compounds on IL-17 production by CD4 T cells under conditions which favor Th17 differentiation.
Total CD4^+ T cells were isolated from the peripheral blood mononuclear cells (PBMC) of healthy donors using a CD4^+ T cell isolation kit II, following the manufacturer's instructions (Miltenyi Biotec). Cells were resuspended in a medium of RPMI-1640 supplemented with 10% fetal bovine serum, penicillin, streptomycin, glutamate, and β-mercaptoethanol and were added to 96-well plates at 1.5×10^5 per 100 μL per well. 50 μL of compound at titrated concentrations in DMSO were added into each well at final DMSO concentration at 0.2%. Cells were incubated for 1 hour, then 50 μL of Th17 cell differentiation medium was added to each well. The final concentrations of antibodies and cytokines (R&D Systems) in differentiation medium were: 3×10^6/mL anti-CD3/CD28 beads (prepared using human T cell activation/expansion kit, Miltenyi Biotec), 10 μg/mL anti-IL4, 10 μg/mL anti-IFNγ, 10 ng/mL IL113, 10 ng/mL IL23, 50 ng/mL IL6, 3 ng/mL TGFβ and 20 U/mL IL2. Cells were cultured at 37° C. and 5% CO2 for 3 days. Supernatants were collected and the accumulated IL-17 in culture was measured by using MULTI-SPOT® Cytokine Plate following manufacture's instruction (Meso Scale Discovery). The plate was read using Sector Imager 6000, and IL-17 concentration was extrapolated from the standard curve. The IC50s were determined by GraphPad.

Sequence of human RORγt LBD (P51449 258-518): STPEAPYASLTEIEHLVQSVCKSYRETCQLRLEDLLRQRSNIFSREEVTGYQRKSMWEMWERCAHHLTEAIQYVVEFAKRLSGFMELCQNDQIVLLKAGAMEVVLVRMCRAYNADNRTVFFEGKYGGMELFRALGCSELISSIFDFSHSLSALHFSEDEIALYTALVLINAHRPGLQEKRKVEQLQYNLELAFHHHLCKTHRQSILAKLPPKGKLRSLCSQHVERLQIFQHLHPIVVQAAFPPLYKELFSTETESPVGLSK

| SMILES | RORγt reporter Assay, % inhibition @ 6 μM [1] [%] | IC50 [2] [µM] | inhibition at 6 µM [1] [%] | IC50 ([2]; Homo sapiens, CD4+ T, 72 h) [µM] |
| --- | --- | --- | --- | --- |
| CCOc1nc2ccc(C(O)(c3ccc(Cl)cc3)c3cncn3C)cc2c(Cl)c1Oc1ccccc1 (single isomer, unassigned) [Example 2a, (4-Chloro-2-ethoxy-3-phenoxyquinolin-6-yl)(4-chlorophenyl)(1-methyl-1H-imidazol-5-yl)methanol.TFA] | 88 | 0.61 |  |  |
| CCOc1nc2ccc(C(O)(c3ccc(Cl)cc3)c3cncn3C)cc2c(Cl)c1Oc1ccccc1 (single isomer, unassigned) [Example 2b] |  | 0.66 | 92 |  |
| CCOc1nc2ccc(C(O)(c3ccc(Cl)cc3)c3cncn3C)cc2c(Cl)c1Oc1ccccc1 (single isomer, unassigned) [Example 2c] | 92 | 0.21 |  |  |
| CCN(CC)c1nc2ccc(C(O)(c3ccc(Cl)cc3)c3cncn3C)cc2c(Cl)c1Oc1ccccc1 (single isomer, unassigned) [Example 3c, (4-Chloro-2-(diethylamino)-3-phenoxyquinolin-6-yl)(4-chlorophenyl)(1-methyl-1H-imidazol-5-yl)methanol] | 104 |  |  | 0.12 |
| CCN(CC)c1nc2ccc(C(O)(c3ccc(OC)nc3)c3cncn3C)cc2c(Cl)c1Oc1ccccc1 (single isomer, unassigned) [Example 5b, (4-Chloro-2-(diethylamino)-3-phenoxyquinolin-6-yl)(6-methoxypyridin-3-yl)(1-methyl-1H-imidazol-5-yl)methanol] |  |  | 98 | 0.085 |
| CCN(CC)c1nc2ccc(C(O)(c3ccc(OC)nc3)c3cncn3C)cc2c(Cl)c1Oc1ccccc1 (single isomer, unassigned) [Example 5c, (4-Chloro-2-(diethylamino)-3-phenoxyquinolin-6-yl)(6-methoxypyridin-3-yl)(1-methyl-1H-imidazol-5-yl)methanol] | 104 | 0.11 |  |  |
| CCN(CC)c1nc2ccc(C(O)(c3ccc(C(F)(F)F)nc3)c3cncn3C)cc2c(Cl)c1Oc1ccccc1 (single isomer, unassigned) [Example 6b, (4-Chloro-2-(diethylamino)-3-phenoxyquinolin-6-yl)(1-methyl-1H-imidazol-5-yl)(6-(trifluoromethyl)pyridin-3-yl)methanol] |  | 0.05 | 93 |  |
| CCN(CC)c1nc2ccc(C(O)(c3ccc(C(F)(F)F)nc3)c3cncn3C)cc2c(Cl)c1Oc1ccccc1 (single isomer, unassigned) [Example 6c, (4-Chloro-2-(diethylamino)-3-phenoxyquinolin-6-yl)(1-methyl-1H-imidazol-5-yl)(6-(trifluoromethyl)pyridin-3-yl)methanol] | 88 | 0.21 |  |  |
| CCN(CC)c1nc2ccc(C(O)(c3ccc(C(F)(F)F)nc3)c3cncn3C)cc2c(Cl)c1Oc1ccc(F)cc1 (single isomer, unassigned) [Example 9b] | 81 | 0.32 |  |  |
| CCN(CC)c1nc2ccc(C(O)(c3ccc(C(F)(F)F)nc3)c3cncn3C)cc2c(Cl)c1Oc1ccc(F)cc1 (single isomer, unassigned) [Example 9c] | 84 | 0.092 |  |  |
| CCOc1nc2ccc(C(O)(c3ccc(OC)nc3)c3cncn3C)cc2c(Cl)c1Oc1ccccc1 (single isomer, unassigned) [Example 10b] | 97 | 0.078 |  |  |
| CCOc1nc2ccc(C(O)(c3ccc(OC)nc3)c3cncn3C)cc2c(Cl)c1Oc1ccccc1 (single isomer, unassigned) [Example 10c] | 103 | 0.095 |  |  |
| CCOc1nc2ccc(C(O)(c3ccc(C(F)(F)F)nc3)c3cncn3C)cc2c(C(F)(F)F)c1Oc1ccc(Cl)cc1 (single isomer, unassigned) [Example 25b, (3-(4-Chlorophenoxy)-2-ethoxy-4-(trifluoromethyl)quinolin-6-yl)(1-methyl-1H-imidazol-5-yl)(6-(trifluoromethyl)pyridin-3-yl)methanol] | 92 |  |  | 0.44 |
| CCN(CC)c1nc2ccc(C(O)(c3ccc(C(F)(F)F)nc3)c3cncn3C)cc2c(C(F)(F)F)c1Oc1ccc(Cl)cc1 (single isomer, unassigned) [Example 27b, (3-(4-Chlorophenoxy)-2-(diethylamino)-4-(trifluoromethyl)quinolin-6-yl)(1-methyl-1H-imidazol-5-yl)(6-(trifluoromethyl)pyridin-3-yl)methanol] |  | 0.051 | 92 |  |
| CCN(CC)c1nc2ccc(C(O)(c3ccc(C(F)(F)F)nc3)c3cncn3C)cc2c(C(F)(F)F)c1Oc1ccc(Cl)cc1 (single isomer, unassigned) [Example 27c, (3-(4-Chlorophenoxy)-2-(diethylamino)-4-(trifluoromethyl)quinolin-6-yl)(1-methyl-1H-imidazol-5-yl)(6-(trifluoromethyl)pyridin-3-yl)methanol] | 89 | 0.49 |  |  |
| Cn1cncc1C(O)(c1ccc(C(F)(F)F)nc1)c1ccc2nc(N3CCC3)c(Oc3ccc(Cl)cc3)c(Cl)c2c1 (single isomer, unassigned) [Example 30b, (2-(Azetidin-1-yl)-4-chloro-3-(4-chlorophenoxy)quinolin-6-yl)(1-methyl-1H-imidazol-5-yl)(6-(trifluoromethyl)pyridin-3-yl)methanol] |  | 0.064 | 103 |  |
| Cn1cncc1C(O)(c1ccc(C(F)(F)F)nc1)c1ccc2nc(N3CCC3)c(Oc3ccc(Cl)cc3)c(Cl)c2c1 (single isomer, unassigned) [Example 30c, (2-(Azetidin-1-yl)-4-chloro-3-(4-chlorophenoxy)quinolin-6-yl)(1-methyl-1H-imidazol-5-yl)(6-(trifluoromethyl)pyridin-3-yl)methanol] | 97 | 0.02 |  |  |
| Cn1cncc1C(O)(c1ccc(C(F)(F)F)nc1)c1ccc2nc(N3CCC3)c(Oc3ccc(C#N)cc3)c(Cl)c2c1 (single isomer, unassigned) [Example 31b, 4-((2-(Azetidin-1-yl)-4-chloro-6-(hydroxy(1-methyl-1H-imidazol-5-yl)(6-(trifluoromethyl)pyridin-3-yl)methyl)quinolin-3-yl)oxy)benzonitrile] |  | ~0.1 |  |  |
| Cn1cncc1C(O)(c1ccc(C(F)(F)F)nc1)c1ccc2nc(N3CCC3)c(Oc3ccc(C#N)cc3)c(Cl)c2c1 (single isomer, unassigned) [Example 31c, 4-((2-(Azetidin-1-yl)-4-chloro-6-(hydroxy(1-methyl-1H-imidazol-5-yl)(6-(trifluoromethyl)pyridin-3-yl)methyl)quinolin-3-yl)oxy)benzonitrile] |  | 0.017 |  |  |
| Cn1cncc1C(O)(c1ccc(C(F)(F)F)nc1)c1ccc2nc(N3CCCC3)c(Oc3ccc(C#N)cc3)c(Cl)c2c1 (stereo not drawn) [Example 33, 4-((4-Chloro-6-(hydroxy(1-methyl-1H-imidazol-5-yl)(6-(trifluoromethyl)pyridin-3-yl)methyl)-2-(pyrrolidin-1-yl)quinolin-3-yl)oxy)benzonitrile] |  |  |  | 0.088 |
| CN(c1ccccc1)c1c(Cl)nc2ccc(C(O)(c3cccnc3)c3cccc(Cl)c3)cc2c1Cl (stereo not drawn) [Example 35, (3-Chlorophenyl)(2,4-dichloro-3-(methyl(phenyl)amino)quinolin-6-yl)(pyridin-3-yl)methanol] |  |  |  | ~1 |
| CCN(c1ccccc1)c1c(Cl)nc2ccc(C(O)(c3cccnc3)c3cccc(Cl)c3)cc2c1Cl (stereo not drawn) [Example 39, (3-Chlorophenyl)(2,4-dichloro-3-(ethyl(phenyl)amino)quinolin-6-yl)(pyridin-3-yl)methanol] |  |  |  | > 6 |

— US9303015B2, “Heteroaryl linked quinolinyl modulators of RORγt” (Janssen Pharmaceutica NV, priority 2012, dated 2016)
